Common to all, as to assay: relative viability (nuclei count vs DMSO), 5 days (fraction); higher = more cells survive
Compound in the test “Carfilzomib + Dasatinib”: CC(C)C[C@H](NC(=O)[C@H](CCc1ccccc1)NC(=O)CN1CCOCC1)C(=O)N[C@@H](Cc1ccccc1)C(=O)N[C@@H](CC(C)C)C(=O)[C@@]1(C)CO1 [Carfilzomib] + Cc1nc(Nc2ncc(C(=O)Nc3c(C)cccc3Cl)s2)cc(N2CCN(CCO)CC2)n1 [Dasatinib] (partner 0.075 µM)
Put shortly: (§1)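 Relative viability equals treated-well nuclei counts divided by vehicle-well nuclei counts. Counts came from 4× images of lung cancer cell lines grown in 1536-well plates for 5 days after pin-tool dosing on the day after seeding. Dosing used one drug alone or a fixed anchor-drug dose plus five library-drug doses (not always all listed) in √10 steps, and values are medians of duplicate plates.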

Compound in the test “Crizotinib + Navitoclax”: C[C@@H](Oc1cc(-c2cnn(C3CCNCC3)c2)cnc1N)c1c(Cl)ccc(F)c1Cl [Crizotinib] + CC1(C)CCC(c2ccc(Cl)cc2)=C(CN2CCN(c3ccc(C(=O)NS(=O)(=O)c4ccc(N[C@H](CCN5CCOCC5)CSc5ccccc5)c(S(=O)(=O)C(F)(F)F)c4)cc3)CC2)C1 [Navitoclax] (partner 0.5 µM)
Put shortly:
as §1

Compound in the test “Olaparib + Decitabine”: O=C(c1cc(Cc2n[nH]c(=O)c3ccccc23)ccc1F)N1CCN(C(=O)C2CC2)CC1 [Olaparib] + Nc1ncn([C@H]2C[C@H](O)[C@@H](CO)O2)c(=O)n1 [Decitabine] (partner 2 µM)
The essentials:
as §1

Compound in the test “Crizotinib + Trametinib”: C[C@@H](Oc1cc(-c2cnn(C3CCNCC3)c2)cnc1N)c1c(Cl)ccc(F)c1Cl [Crizotinib] + CC(=O)Nc1cccc(-n2c(=O)n(C3CC3)c(=O)c3c(Nc4ccc(I)cc4F)n(C)c(=O)c(C)c32)c1 [Trametinib] (partner 0.02 µM)
Put shortly: as §1

As for LOU-NH91, the relative viability is 0.523 with Carfilzomib + Dasatinib (first compound 0.001 µM); 0.618 with Carfilzomib + Dasatinib (first compound 0.003162 µM); 0.564 with Carfilzomib + Dasatinib (first compound 0.01 µM); 0.273 with Carfilzomib + Dasatinib (first compound 0.03162 µM); 0.281 with Carfilzomib + Dasatinib (first compound 0.1 µM); 0.68 with Crizotinib + Navitoclax (first compound 0.01 µM). In addition, the relative viability in the test with Crizotinib + Navitoclax (first compound 0.03162 µM) is 0.708; in the test with Crizotinib + Navitoclax (first compound 0.1 µM) it was 0.701; in the test with Crizotinib + Navitoclax (first compound 0.3162 µM), 0.647; in the test with Crizotinib + Navitoclax (first compound 1 µM), 0.727; with Olaparib + Decitabine (first compound 0.08 µM), 0.853; with Olaparib + Decitabine (first compound 0.253 µM), 0.774. Also, the relative viability with Olaparib + Decitabine (first compound 2.53 µM) came to 0.783; in the test with Olaparib + Decitabine (first compound 8 µM), 0.769; in the test with Crizotinib + Trametinib (first compound 0.01 µM) it was 0.773; in the test with Crizotinib + Trametinib (first compound 0.03162 µM), 0.79; with Crizotinib + Trametinib (first compound 0.1 µM), 0.833; with Crizotinib + Trametinib (first compound 0.3162 µM), 0.763. In addition, in the test with Crizotinib + Trametinib (first compound 1 µM), the relative viability amounted to 0.794.

Regarding NCI-H1755, the relative viability in the test with Carfilzomib + Dasatinib (first compound 0.001 µM) was found to be 0.428; with Carfilzomib + Dasatinib (first compound 0.003162 µM) it was 0.45; with Carfilzomib + Dasatinib (first compound 0.01 µM), 0.479; with Carfilzomib + Dasatinib (first compound 0.03162 µM) it was 0.365; with Carfilzomib + Dasatinib (first compound 0.1 µM) it was 0.263; with Crizotinib + Navitoclax (first compound 0.01 µM), 0.937. Moreover, the relative viability in the test with Crizotinib + Navitoclax (first compound 0.03162 µM) stood at 1.02; in the test with Crizotinib + Navitoclax (first compound 0.1 µM), 0.999; with Crizotinib + Navitoclax (first compound 0.3162 µM), 0.961; with Crizotinib + Navitoclax (first compound 1 µM), 0.983; in the test with Olaparib + Decitabine (first compound 0.08 µM) it was 0.666; with Olaparib + Decitabine (first compound 0.253 µM), 0.621. Further, the relative viability worked out at 0.577 in the test with Olaparib + Decitabine (first compound 2.53 µM); 0.562 with Olaparib + Decitabine (first compound 8 µM); 0.776 with Crizotinib + Trametinib (first compound 0.01 µM); 0.744 with Crizotinib + Trametinib (first compound 0.03162 µM); 0.85 in the test with Crizotinib + Trametinib (first compound 0.1 µM); 0.756 with Crizotinib + Trametinib (first compound 0.3162 µM). Besides, the relative viability with Crizotinib + Trametinib (first compound 1 µM) stood at 0.742.

Regarding NCI-H647, the relative viability stood at 0.198 in the test with Carfilzomib + Dasatinib (first compound 0.001 µM); 0.21 with Carfilzomib + Dasatinib (first compound 0.003162 µM); 0.149 with Carfilzomib + Dasatinib (first compound 0.01 µM); 0.0266 in the test with Carfilzomib + Dasatinib (first compound 0.03162 µM); 0.0232 in the test with Carfilzomib + Dasatinib (first compound 0.1 µM); 1.01 with Crizotinib + Navitoclax (first compound 0.01 µM). The relative viability amounted to 1.21 in the test with Crizotinib + Navitoclax (first compound 0.03162 µM); 1.03 with Crizotinib + Navitoclax (first compound 0.1 µM); 1.06 with Crizotinib + Navitoclax (first compound 1 µM); 0.293 with Olaparib + Decitabine (first compound 0.08 µM); 0.253 with Olaparib + Decitabine (first compound 0.253 µM); 0.227 in the test with Olaparib + Decitabine (first compound 2.53 µM). Further, the relative viability with Olaparib + Decitabine (first compound 8 µM) turned out to be 0.152; in the test with Crizotinib + Trametinib (first compound 0.01 µM), 0.43; with Crizotinib + Trametinib (first compound 0.03162 µM), 0.575; with Crizotinib + Trametinib (first compound 0.1 µM) it was 0.435; with Crizotinib + Trametinib (first compound 0.3162 µM), 0.436; with Crizotinib + Trametinib (first compound 1 µM) it was 0.559.

For the cell line A549, the relative viability in the test with Crizotinib + Navitoclax (first compound 0.01 µM) came to 1.22; with Crizotinib + Navitoclax (first compound 0.03162 µM), 1.15; in the test with Crizotinib + Navitoclax (first compound 0.1 µM), 1.19; with Crizotinib + Navitoclax (first compound 0.3162 µM) it was 1.17; with Crizotinib + Navitoclax (first compound 1 µM), 1.18; with Olaparib + Decitabine (first compound 0.08 µM), 0.119. Moreover, the relative viability in the test with Olaparib + Decitabine (first compound 0.253 µM) was determined as 0.073; in the test with Olaparib + Decitabine (first compound 2.53 µM), 0.0622; with Olaparib + Decitabine (first compound 8 µM), 0.0462.

With LCLC-103H, the relative viability was 0.343 with Carfilzomib + Dasatinib (first compound 0.001 µM); 0.503 with Carfilzomib + Dasatinib (first compound 0.003162 µM); 0.518 with Carfilzomib + Dasatinib (first compound 0.01 µM); 0.362 with Carfilzomib + Dasatinib (first compound 0.03162 µM); 0.299 with Carfilzomib + Dasatinib (first compound 0.1 µM); 0.626 in the test with Olaparib + Decitabine (first compound 0.08 µM). Moreover, the relative viability in the test with Olaparib + Decitabine (first compound 0.253 µM) was 0.727; with Olaparib + Decitabine (first compound 2.53 µM), 0.674; in the test with Olaparib + Decitabine (first compound 8 µM) it was 0.626; with Crizotinib + Trametinib (first compound 0.01 µM), 0.644; with Crizotinib + Trametinib (first compound 0.03162 µM), 0.646; with Crizotinib + Trametinib (first compound 0.1 µM), 0.662. The relative viability with Crizotinib + Trametinib (first compound 0.3162 µM) is 0.686; with Crizotinib + Trametinib (first compound 1 µM), 0.642.

For the cell line NCI-H1437, the relative viability with Carfilzomib + Dasatinib (first compound 0.001 µM) was 0.28; with Carfilzomib + Dasatinib (first compound 0.003162 µM), 0.483; with Carfilzomib + Dasatinib (first compound 0.01 µM), 0.419; in the test with Carfilzomib + Dasatinib (first compound 0.03162 µM) it was 0.257; in the test with Carfilzomib + Dasatinib (first compound 0.1 µM) it was 0.133; with Crizotinib + Navitoclax (first compound 0.01 µM), 1.05. Further, the relative viability turned out to be 1.07 with Crizotinib + Navitoclax (first compound 0.03162 µM); 1.14 with Crizotinib + Navitoclax (first compound 0.1 µM); 1.02 with Crizotinib + Navitoclax (first compound 0.3162 µM); 1.13 in the test with Crizotinib + Navitoclax (first compound 1 µM); 0.458 in the test with Olaparib + Decitabine (first compound 0.08 µM); 0.391 with Olaparib + Decitabine (first compound 0.253 µM). For the same cell line, the relative viability was determined as 0.434 with Olaparib + Decitabine (first compound 2.53 µM); 0.386 in the test with Olaparib + Decitabine (first compound 8 µM); 0.542 with Crizotinib + Trametinib (first compound 0.01 µM); 0.577 with Crizotinib + Trametinib (first compound 0.03162 µM); 0.544 in the test with Crizotinib + Trametinib (first compound 0.1 µM); 0.457 with Crizotinib + Trametinib (first compound 0.3162 µM). In the test with Crizotinib + Trametinib (first compound 1 µM), the relative viability was 0.608.

Take NCI-H2170: the relative viability with Carfilzomib + Dasatinib (first compound 0.001 µM) is 0.56; in the test with Carfilzomib + Dasatinib (first compound 0.003162 µM), 0.519; with Carfilzomib + Dasatinib (first compound 0.01 µM), 0.832; with Carfilzomib + Dasatinib (first compound 0.03162 µM), 0.352; with Carfilzomib + Dasatinib (first compound 0.1 µM), 0.237; with Crizotinib + Navitoclax (first compound 0.01 µM), 0.536. The relative viability was found to be 0.603 with Crizotinib + Navitoclax (first compound 0.03162 µM); 0.574 with Crizotinib + Navitoclax (first compound 0.1 µM); 0.468 with Crizotinib + Navitoclax (first compound 0.3162 µM); 0.632 with Crizotinib + Navitoclax (first compound 1 µM); 0.422 with Olaparib + Decitabine (first compound 0.08 µM); 0.369 with Olaparib + Decitabine (first compound 0.253 µM). The relative viability stood at 0.277 with Olaparib + Decitabine (first compound 2.53 µM); 0.253 with Olaparib + Decitabine (first compound 8 µM); 0.859 with Crizotinib + Trametinib (first compound 0.01 µM); 0.993 with Crizotinib + Trametinib (first compound 0.03162 µM); 0.869 with Crizotinib + Trametinib (first compound 0.1 µM); 0.928 in the test with Crizotinib + Trametinib (first compound 0.3162 µM). Further, the relative viability with Crizotinib + Trametinib (first compound 1 µM) was determined as 0.909.

Regarding HCC-15, the relative viability in the test with Carfilzomib + Dasatinib (first compound 0.001 µM) was 0.609; in the test with Carfilzomib + Dasatinib (first compound 0.003162 µM), 0.654; with Carfilzomib + Dasatinib (first compound 0.01 µM), 0.673; with Carfilzomib + Dasatinib (first compound 0.03162 µM), 0.3; with Carfilzomib + Dasatinib (first compound 0.1 µM), 0.0867; with Crizotinib + Navitoclax (first compound 0.01 µM), 0.644. Further, the relative viability amounted to 0.736 with Crizotinib + Navitoclax (first compound 0.03162 µM); 0.704 in the test with Crizotinib + Navitoclax (first compound 0.1 µM); 0.664 with Crizotinib + Navitoclax (first compound 0.3162 µM); 0.76 with Crizotinib + Navitoclax (first compound 1 µM); 0.682 with Olaparib + Decitabine (first compound 0.08 µM); 0.479 with Olaparib + Decitabine (first compound 0.253 µM). The relative viability was found to be 0.463 with Olaparib + Decitabine (first compound 2.53 µM); 0.344 with Olaparib + Decitabine (first compound 8 µM); 0.396 with Crizotinib + Trametinib (first compound 0.01 µM); 0.346 in the test with Crizotinib + Trametinib (first compound 0.03162 µM); 0.38 with Crizotinib + Trametinib (first compound 0.1 µM).

These data come from the supplement of paper PMC10307832.
